Source: ChEMBL document CHEMBL4308857, “Leishmania treatment and prevention: Natural and synthesized drugs” (Eur J Med Chem, 2018)
≈ marks a conversion by molar mass, not a printed value.

Tests used:
Leishmania amazonensis [1] = assay: Antileishmanial activity against Leishmania amazonensis MHOM/BR/76/LTB-012 axenic amastigotes after 72 hrs by MTT assay; assay type: functional, organism-based; conditions: MHOM/BR/76/LTB-012, 72 h
Leishmania amazonensis [2] = assay: Antileishmanial activity against Leishmania amazonensis MCAN/ES/92/BCN83 axenic amastigotes infected in BALB/c mouse assessed as reduction in parasitic burden at 10 mg/kg, ip administered as daily dose for 3 continuous days and measured at day 5 post last dose by limit dilution assay relative to control; assay type: functional; design: scale not given: the % may be the effect or the level left
Leishmania donovani [3] = assay: Antileishmanial activity against Leishmania donovani […]/IN/80/DD8 promastigotes after 72 hrs by MTT assay; assay type: functional, organism-based; conditions: […]/IN/80/DD8, 72 h
Leishmania donovani [4] = assay: Antileishmanial activity against Leishmania donovani MHOM/ET/ 67/L82 amastigotes infected in BALB/c mouse assessed as reduction in parasitic load in liver at 100 mg/kg, sc qd administered for 5 days measured at 3 days post last dose relative to control; assay type: functional; design: scale not given: the % may be the effect or the level left
[5] = Cytotoxicity against BALB/c mouse peritoneal cells assessed as reduction in cell viability after 24 hrs by MTT assay; assay type: cell-based
Leishmania amazonensis [6] = assay: Antileishmanial activity against Leishmania amazonensis […]/BR/75/Josefa promastigotes; assay type: functional, organism-based
Leishmania amazonensis [7] = assay: Antileishmanial activity against Leishmania amazonensis […]/BR/75/Josefa axenic amastigotes infected in mouse J774A1 cells; assay type: functional, organism-based; conditions: J774.A1
Leishmania donovani [8] = assay: Antileishmanial activity against wild type Leishmania donovani LV9 promastigotes by MTT assay; assay type: functional, organism-based
[9] = test system: Mycobacterium tuberculosis; assay: Antitubercular activity against Mycobacterium tuberculosis H37Rv ATCC 27294 after 7 to 10 days by Resazurin microtiter assay; assay type: functional, organism-based
Leishmania panamensis = assay: Antileishmanial activity against GFP-fused Leishmania panamensis MHOM/CO/87/UA140pIR amastigotes infected in human U937 cells after 72 hrs by flow cytometric analysis; assay type: functional, organism-based; conditions: U-937, 72 h
[10] = Cytotoxicity against human U937 cells assessed as reduction in cell viability after 72 hrs by MTT assay; assay type: cell-based, U-937; conditions: read-out: LD50
Leishmania infantum [11] = assay: Antileishmanial activity against zymodemes of Leishmania infantum MCAN/ES/90/DP204 promastigotes by Neubauer chamber analysis; assay type: functional, organism-based
Leishmania amazonensis [12] = assay: Antileishmanial activity against Leishmania amazonensis promastigotes; assay type: functional, organism-based
Leishmania amazonensis [13] = assay: Antileishmanial activity against Leishmania amazonensis axenic amastigotes; assay type: functional, organism-based
Leishmania infantum [14] = assay: Antileishmanial activity against Leishmania infantum MCAN/BR/97/P142 promastigotes after 24 hrs; assay type: functional, organism-based; conditions: MCAN/BR/97/P142, 24 h
Leishmania amazonensis [15] = assay: Antileishmanial activity against Leishmania amazonensis MHOM/BR/77/LTB0016 promastigotes after 24 hrs; assay type: functional, organism-based; conditions: MHOM/BR/77/LTB0016, 24 h
Leishmania amazonensis [16] = assay: Antileishmanial activity against Leishmania amazonensis MHOM/BR/75/Josefa promastigotes after 72 hrs by Neubauer hemocytometric analysis; assay type: functional, organism-based
Leishmania amazonensis [17] = assay: Antileishmanial activity against Leishmania amazonensis MHOM/BR/75/Josefa axenic amastigotes after 72 hrs by Neubauer hemocytometric analysis; assay type: functional, organism-based
Leishmania amazonensis [18] = assay: Antileishmanial activity against Leishmania amazonensis MHOM/BR/75/Josefa intracellular amastigotes after 72 hrs by Neubauer hemocytometric analysis; assay type: functional, organism-based
Leishmania aethiopica = assay: Antileishmanial activity against Leishmania aethiopica amastigotes; assay type: functional, organism-based
Leishmania mexicana [19] = assay: Antileishmanial activity against Leishmania mexicana LV4 promastigotes; assay type: functional, organism-based
Leishmania mexicana [20] = assay: Antileishmanial activity against Leishmania mexicana LV4 amastigotes infected in BALB/c bone marrow-derived macrophages assessed as reduction in cell viability after 2 hrs by trypan blue staining based bright-field microscopic analysis; assay type: functional, organism-based; conditions: LV4, 2 h
Leishmania amazonensis [21] = assay: Antileishmanial activity against Leishmania amazonensis promastigotes assessed as reduction in parasitic growth after 5 to 7 days by Neubauer chamber analysis; assay type: functional, organism-based
Leishmania major [22] = assay: Antileishmanial activity against Leishmania major amastigotes; assay type: functional, organism-based
[23] = test system: Leishmania mexicana venezuelensis; assay: Antileishmanial activity against Leishmania venezuelensis MHOM/VE/74/PM-H3 amastigotes infected in BALB/c mouse assessed as reduction in parasitic load in footpad at 14 to 56 mg/kg, sc bid treated for 15 days at interval of 4 days and measured at 1 week post last dose by Giemsa staining-based inverted microscopic analysis relative to control; assay type: functional; design: scale not given: the % may be the effect or the level left
Leishmania donovani [24] = assay: Antileishmanial activity against Leishmania donovani promastigotes after 48 hrs by MTT assay; assay type: functional, organism-based
Leishmania donovani [25] = assay: Antileishmanial activity against Leishmania donovani amastigotes infected in mouse J774G8 cells after 48 to 72 hrs by Giemsa staining-based bright-field microscopic analysis; assay type: functional, organism-based
Leishmania donovani [26] = assay: Antileishmanial activity against Leishmania donovani MHOM/SD/00/1SD2D axenic amastigotes infected in human peripheral blood mononuclear cells after 3 days by 3H-thymidine incorporation assay; assay type: functional, organism-based
Leishmania major [27] = assay: Antileishmanial activity against Leishmania major MHOM/IL/67/LRC-L137 promastigotes after 2 hrs by 3H-thymidine incorporation assay; assay type: functional, organism-based
Leishmania donovani [28] = assay: Antileishmanial activity against Leishmania donovani promastigotes infected in hamster assessed as reduction in parasitic load in spleen at 20 mg/kg, ip treated for 6 consecutive days measured at day 8 post last dose by 3H-thymidine incorporation assay relative to control; assay type: functional; design: scale not given: the % may be the effect or the level left
Leishmania donovani [29] = assay: Antileishmanial activity against Leishmania donovani promastigotes infected in hamster assessed as reduction in parasitic load in liver at 20 mg/kg, ip treated for 6 consecutive days measured at day 8 post last dose by 3H-thymidine incorporation assay relative to control; assay type: functional; design: scale not given: the % may be the effect or the level left
Leishmania donovani [30] = assay: Antileishmanial activity against Leishmania donovani promastigotes infected in golden hamster assessed as reduction in parasitic load in spleen at 3.5 mg/kg, po administered 2 times a week for 4 weeks starting at 4 days post-infection measured 1 week post last dose by Giemsa staining-based assay relative to control; assay type: functional; design: scale not given: the % may be the effect or the level left
Leishmania donovani [31] = assay: Antileishmanial activity against Leishmania donovani promastigotes infected in golden hamster assessed as reduction in parasitic load in spleen at 14 mg/kg, po administered 2 times a week for 4 weeks starting at 4 days post-infection measured 1 week post last dose by Giemsa staining-based assay relative to control; assay type: functional; design: scale not given: the % may be the effect or the level left
Leishmania donovani [32] = assay: Antileishmanial activity against Leishmania donovani intracellular amastigotes infected in mouse J774A.1 cells by flow cytometry; assay type: functional, organism-based; conditions: J774.A1

O=C1c2ccccc2C2=NCCc3cccc1c32
IC50 (Leishmania amazonensis [1]): < 0.05 µM | Activity (Leishmania amazonensis [2]): <=90%

O=c1oc2ccccc2c(O)c1C(c1ccccc1)c1c(O)c2ccccc2oc1=O
IC50 (Leishmania donovani [3]): 155 µg/mL (≈ 376 µM)

CC(=O)O[C@@]12CO[C@@H]1C[C@H](O)[C@@]1(C)C(=O)[C@H](O)C3=C(C)[C@@H](O)C[C@@](O)([C@@H](OC(=O)c4ccccc4)[C@H]21)C3(C)C
Activity (Leishmania donovani [4]): 42%

Cc1nn(-c2ccc(S(=O)(=O)Nc3ccccc3)cc2)c(Cl)c1Br
CC50 at 24 h [5]: 144 µM

CCCCNC(=O)c1cc2c([nH]c3ccccc32)c(-c2ccc(OC)cc2)n1
IC50 (Leishmania amazonensis [6]): 4.44 µM | IC50 (Leishmania amazonensis [7]): 12.5 µM

COc1ccc(N[C@]2(C(F)(F)F)O[C@@H]3O[C@@]4(C)CC[C@H]5[C@H](C)CC[C@@H]([C@H]2C)[C@@]35OO4)cc1
IC50 (Leishmania donovani [8]): 1.5 µM

COc1ccc(C(c2c(O)c3ccccc3oc2=O)c2c(O)c3ccccc3oc2=O)c(OC)c1
IC50 (Leishmania donovani [3]): 158 µg/mL (≈ 333 µM)

COC(=O)CC[C@@H](C)[C@H]1CC[C@H]2[C@@H]3[C@H](O)C[C@@H]4C[C@@H](n5cc(CNCCNc6ccnc7cc(Cl)ccc67)nn5)CC[C@]4(C)[C@H]3C[C@H](O)[C@]12C
IC50 [9]: 10.6 µM

O=C1C2=C(CCCC2)C2=NCCc3cccc1c32
IC50 (Leishmania amazonensis [1]): 0.025 µM

O=c1ccoc2cc(OCCCCOc3cc(Cl)ccc3Oc3ccc(Cl)cc3Cl)ccc12
EC50 (Leishmania panamensis): 7.5 µg/mL (≈ 14.8 µM) | CC50 at 72 h [10]: 15.8 µg/mL (≈ 31.2 µM)

CC(C)=CCC[C@@](C)(O)C1CC=C(C)CC1 (some centres not stated)
IC50 (Leishmania infantum [11]): 11 µg/mL (≈ 49.4 µM)

Cc1cc(=O)oc2cc(OCCCCOc3cc(Cl)ccc3Oc3ccc(Cl)cc3Cl)ccc12
EC50 (Leishmania panamensis): 27.5 µg/mL (≈ 52.9 µM) | CC50 at 72 h [10]: > 200 µg/mL

Cc1cccc(-c2ccn(S(=O)(=O)c3ccccc3)n2)c1NS(=O)(=O)c1ccccc1
IC50 (Leishmania amazonensis [12]): 6.7 µM | IC50 (Leishmania amazonensis [13]): 56 µM

Cc1nn(-c2ccc(S(=O)(=O)Nc3ccc(Cl)cc3)cc2)c(Cl)c1Br
IC50 (Leishmania infantum [14]): 0.065 µM | IC50 (Leishmania amazonensis [15]): 0.072 µM | CC50 at 24 h [5]: 116 µM

C/C=C/c1ccc2oc(-c3ccc(O)c(OC)c3)c(C)c2c1
IC50 (Leishmania amazonensis [16]): 9 µg/mL (≈ 30.6 µM) | IC50 (Leishmania amazonensis [17]): 13 µg/mL (≈ 44.2 µM) | IC50 (Leishmania amazonensis [18]): 5 µg/mL (≈ 17 µM)

COc1cc(OC)c(C(c2c(O)c3ccccc3oc2=O)c2c(O)c3ccccc3oc2=O)c(OC)c1
IC50 (Leishmania donovani [3]): 150 µg/mL (≈ 299 µM)

CCC(=O)N1N=C(c2ccccc2)CC1c1cn(-c2ccccc2)nc1-c1ccc(C)cc1 (configuration not stated)
IC50 (Leishmania aethiopica): 0.112 µg/mL (≈ 0.258 µM)

C=CCCCCC/C=C\CC#CC#C[C@@H](O)C=C
IC50 (Leishmania mexicana [19]): 0.55 µM | IC50 (Leishmania mexicana [20]): 0.48 µM

C[C@@]12C[C@H]3OC(=O)[C@@H]1CO[C@]14O[C@@]5([C@H]2C1=O)[C@@]3(C)OC(=O)[C@@]5(O)CC[C@H]1[C@H]4C[C@H]2O[C@]23CC=CC(=O)[C@]13C
IC50 (Leishmania amazonensis [21]): 1.4 µM

CC(C)c1nc2nc(N)nc(N)c2nc1C(C)C
IC50 (Leishmania major [22]): 0.5 µM

C/C=C/c1ccc2ccccc2n1 [CHIMANINE B]
Activity [23]: 95%

C/C=C1\C(=O)O[C@]23C=C[C@@H]4C(C(=O)OC)=CO[C@H](O[C@@H]12)[C@@H]43 [ISOPLUMERICIN]
IC50 (Leishmania donovani [24]): 3.17 µM | IC50 (Leishmania donovani [25]): 1.41 µM

C=CC(C)(C)c1cc(/C=C/C(=O)c2ccc(O)cc2)c(OC)cc1O [LICOAGROCHACONE A]
IC50 (Leishmania donovani [26]): 0.9 µg/mL (≈ 2.66 µM) | IC50 (Leishmania major [27]): 7.2 µg/mL (≈ 21.3 µM) | Activity (Leishmania donovani [28]): >90% | Activity (Leishmania donovani [29]): >90%

O=c1cc(-c2ccc(O)c(O)c2)oc2cc(O)cc(O)c12 [LUTEOLIN]
Activity (Leishmania donovani [30]): <=90%

C/C=C1/C(=O)O[C@]23C=C[C@@H]4C(C(=O)OC)=CO[C@H](O[C@@H]12)[C@@H]43 [PLUMERICIN]
IC50 (Leishmania donovani [24]): 7.2 µM | IC50 (Leishmania donovani [25]): 4.1 µM

O=c1c(O)c(-c2ccc(O)c(O)c2)oc2cc(O)cc(O)c12 [QUERCETIN]
Activity (Leishmania donovani [31]): <=90%

c1ccc2c(c1)Sc1ccccc1S2 [THIANTHRENE]
IC50 (Leishmania donovani [32]): 23 µM
